In brackets after ≈: the same amount, converted by molar mass.
Assays:
[1] = system: HDM-challenged mice; test: HDM-induced mouse model of allergic airway inflammation; type: in vivo; settings: 1 (200 μg/mL) on day 4, 6 and 8; analysis on day 11
Procedure: Approximately 1 × 10^6 CD4 T cells from DO11.10 mice were transferred to naïve BALB/c mice intravenously. The following day, mice were challenged with a mixture of HDM (50 μg of Dermatophagoides farinae and Dermatophagoides pteronyssinus each; Greer Laboratories, Inc., USA) and 100 μg of OVA (Sigma-Aldrich Co., USA) for three days via the intranasal route. Mice were treated with 1 (200 μg) or PBS intraperitoneally three times every other day starting from […] post-challenge based on previous report. Allergen-challenged mice were sacrificed on day 11 post-challenge. […] The total cell number was counted using a hemocytometer. Leukocytes were transferred to glass slides by Cytospin (Thermo Scientific, USA) at 2,800 rpm for 5 min, and stained with Diff-Quick staining (Sysmex Corporation, Japan). Flow cytometry analysis: […] Cells were stained with anti-CD4 FITC (RM4-5, Biolegend Inc., USA), anti-CD127 PE/Cy7 (A7R34, Biolegend Inc., USA), anti-CD62L APC/Cy7 (MEL14, Biolegend Inc., USA), anti-CD27 PE (LG.7F9, eBioscience Inc., USA), and anti-DO11.10APC (KJ1-26, eBioscience Inc., USA) antibodies for 30 min. Stained cells were examined by flow cytometry using LSR Fortessa ^TM. Data were analyzed using FlowJo software Ver 9.7.6.

[2] = target: T1, hTSLP (Homo sapiens, UniProt Q969D9); test: 1D and CPMG relaxation-edited NMR ligand binding; settings: 1 at 100 μM, PBS buffer condition
T1 construct: human TSLP28–159 with thrombin cleavage site at C-terminus; thrombin cleavage site (C); 8xHis (from vector pAB-bee-8xHis) (C, cleaved yes); made in house; host or cells: Trichoplusia ni High-Five cells, baculovirus (secreted)
T1 sequence (Q969D9 28-159): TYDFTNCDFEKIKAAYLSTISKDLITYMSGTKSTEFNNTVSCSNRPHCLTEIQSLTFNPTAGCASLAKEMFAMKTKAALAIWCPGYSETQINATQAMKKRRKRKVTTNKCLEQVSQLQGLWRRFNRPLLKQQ

[3] = Kinetic aqueous solubility; type: physicochemical; settings: 0.1 M potassium phosphate buffer, kinetic from dmso stock, PBS / phosphate buffer pH 7.4
Procedure: In brief, 10 mM stock solution of tested compounds was prepared in DMSO. 25 μL of the stock solution was added to a 1-mL uniprep vial containing 475 μL of 0.1 M potassium phosphate buffer (pH 7.4), and was shaken at 800 rpm for 90 min at room temperature. Following shaking, the mixture was filtered by slowly pressing the upper tube of the 1 mL Mini-Uniprep^TM filter (PTFE membrane, 0.45 μm). 250 μL of the filtrate solution was then transferred to a HPLC vial containing equal volume of acetonitrile.

[4] = system: ovalbumin (OVA)-treated mice; settings: cited from earlier work
[5] = system: carbonic anhydrase; test: 1D and CPMG relaxation-edited NMR ligand binding; settings: 1 at 100 μM, 2.5 μM carbonic anhydrase
Procedure: (§1) All spectra were measured at 283, 291, and 298 K. Data processing and analysis were conducted using TopSpin 3.1 program (Bruker, Germany). One-dimensional (1D) relaxation-edited experiments were performed using the method previously described by Hadjuk et al.[23]. We used CPMG pulse train with a pre-acquisition delay of 1.8 s, a 2 ms delay for dephasing and rephrasing in spin echo, and a total spin-lock time of 400 ms. The data were collected using a spectral width of 9,615 Hz and 128 scans.

[6] = target: T2, hTSLPR (Homo sapiens, UniProt Q9HC73); test: 1D and CPMG relaxation-edited NMR ligand binding; settings: 1 at 100 μM, 2.5 μM hTSLPR
T2 construct: human TSLPR26–217 with C-terminal octa-histidine tag (hTSLPR-His); 8xHis (C); made in house; host or cells: Trichoplusia ni High-Five cells, baculovirus (secreted)
T2 sequence (Q9HC73 26-217): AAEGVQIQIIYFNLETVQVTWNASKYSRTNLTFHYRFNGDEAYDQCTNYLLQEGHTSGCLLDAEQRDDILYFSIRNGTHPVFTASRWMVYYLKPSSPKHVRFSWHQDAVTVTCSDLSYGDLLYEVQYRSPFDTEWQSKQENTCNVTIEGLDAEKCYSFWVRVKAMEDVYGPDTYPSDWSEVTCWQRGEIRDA
Procedure: as §1

[7] = target: T3, FLAG-tagged hTSLP bound to His-tagged hTSLPR (Homo sapiens, UniProt Q969D9); test: Pull-down assay, His-tagged hTSLPR and FLAG-tagged hTSLP, Western blotting; type: binding; settings: compound at 0, 10, 50 and 100 μM
T3 construct: human TSLP28–159 with thrombin cleavage site at C-terminus; thrombin cleavage site (C); 8xHis (from vector pAB-bee-8xHis) (C, cleaved yes); made in house; host or cells: Trichoplusia ni High-Five cells, baculovirus (secreted)
T3 sequence (Q969D9 28-159): as the sequence (Q969D9 28-159) above

[8] = system: STAT5 phosphorylation in hTSLP-stimulated HMC-1 cells; test: STAT5 assay (STAT5 phosphorylation, flow cytometry); type: cell-based, human
Procedure: (§2) HMC-1 cells were obtained from the Department of Food Technology and Inflammatory Disease Research Center (Hoseo University, Asan, Chungnam, Korea). Cells were cultured in Iscove’s modified Dulbecco’s medium (IMDM; Hyclone Laboratories Inc, USA) supplemented with 10% FBS and 1% Penicillin-streptomycin (PS; Gibco Industries Inc, USA) and incubated at 37 °C under humidified atmosphere of 95% air and 5% CO2. Recombinant hTSLP was purchased from R&D Systems (Minneapolis, USA).
Intracellular phospho-STAT5 (pSTAT5) staining method was based on the protocol obtained from the laboratory of Susan Kaech, Department of Immunobiology, Yale University School of Medicine (New Haven, Connecticut, USA). Briefly, HMC-1 cells were seeded in 96-well U-bottom plate at a density of 1 × 10^7 cells/mL and stimulated with 100 ng/mL recombinant hTSLP alone or with 1 for 30 min. After stimulation, cells were fixed with BD Cytofix/Cytoperm (BD Biosciences, USA) solution for 10 min. Fixed cells were then permeabilized with ice-cold methanol for 30 min, and intracellular pSTAT5 was stained with Alexa Fluor 647 mouse anti-STAT5 (pY694; BD Biosciences, USA) (1:10 dilution in FACS buffer) for 30 min. Stained cells were further fixed with BD Cytofix/Cytoperm solution for 10 min and re-suspended in FACS buffer for flow cytometry analysis. Cells were analyzed by a BD LSR Fortessa Flow cytometry (BD Biosciences, USA). FACS data were analyzed using FlowJo software Ver 9. 7. 6 (Tree Star Inc., USA).

[9] = system: house dust mite (HDM)-challenged mice; settings: cited from earlier work
[10] = system: pSTAT5 in TSLP-stimulated HMC-1 cells; test: Western blot analysis of STAT5 phosphorylation; type: cell-based, human; settings: HMC-1 cells pretreated, TSLP 20 ng/mL for 2 h
Procedure: as §2
[…] Activated cells were lysed and separated by 10% sodium dodecyl sulfate-polyacrylamide gel electrophoresis (SDS-PAGE). After electrophoresis, proteins were transferred to nitrocellulose membranes. The membranes were blocked, incubated with primary antibodies (1:700 dilution in PBS with 0.05% Tween-20), and developed using peroxidase-conjugated secondary antibodies (1:3000 dilution in PBS with 0.05% Tween-20). Proteins were visualized by enhanced chemiluminescence (Amersham Bioseciences, Piscataway, NJ, USA) according to the manufacturer’s instructions.

[11] = system: OVA-sensitized and challenged mice; test: OVA-induced mouse model of allergic airway inflammation; type: in vivo
Procedure: Sensitization and airway challenge: For initial sensitization, BALB/c mice were administered intraperitoneally on day 0 with 20 μg of OVA emulsified in 200 μL of sterile PBS containing 1 mg of aluminum hydroxide adjuvant (Imject® Alum, Thermofisher, Korea). On day 14, the mice were boosted with the same allergen by IP injection. […] The mice were sacrificed at the indicated time points and BAL was performed. […] The control group received vehicle only. BAL: Immediately after sacrifice, lungs were lavaged as described above. Total leukocyte numbers were counted. Differential cell counts were performed by counting at least 200 cells on cytocentrifuged samples stained with Diff-Quick solution.

O=c1cc(-c2ccccc2)oc2cc(O)c(O)c(O)c12 [Compound 1, baicalein]
number of allergen-specific T cells [1]: not changed
number of eosinophils in BALF vs PBS-treated control [1]: substantially reduced
total number of leukocytes in BALF vs PBS control [1]: comparable
1D NMR signals of the compound in the presence of the protein [2]: significantly broadened
solubility kinetic at 90 min [3]: 62 µM (≈ 16.8 µg/mL)
airway inflammation [4]: reduce
1D NMR signals of the compound in the presence of the protein [5]: no signal broadening
1D NMR signals of the compound in the presence of the protein [6]: no signal broadening
amount of FLAG-tagged hTSLP bound to His-tagged hTSLPR [7]: reduced in a dose-dependent manner
STAT5 phosphorylation % ([8]; 3 µM): 65.7%
STAT5 phosphorylation % ([8]; 10 μM): 61.6%
hTSLP inhibitory activity in the in vitro STAT5 assay (in words) ([8]; HMC-1 cells, hTSLP 100 ng/mL, 30 min, compound 1 at 3 or 10 μM): inhibited
skin severity scores [9]: lower
inhibition of STAT5 phosphorylation, Western blot (in words) [10]: dose-dependent inhibition
number of eosinophils recruited to the airways ([11]; 100 mg/kg IP, BALF 48 h): significantly reduced
eosinophil numbers in BALF over time ([11]; 100 mg/kg IP, as early as 24 h post injection, up to 72 h): decreased
inhibition of airway inflammation ([11]; single IP administration, 10, 50 or 100 mg/kg, BALF 48 h): dose-dependent manner

Reference: article PMC6584507 (Scientific Reports, 2019)
